{
  "source": "the NIST ThermoML archive (doi:10.1016/j.jct.2011.11.026)",
  "key": {"[1]": {"assay": "Molar enthalpy of transition or fusion", "conditions": "Crystal; DSC"}, "[2]": {"assay": "molar heat capacity at constant pressure", "conditions": "298.15 K; 101.33 kPa; Crystal; Small sample (50 mg) DSC"}, "[3]": {"conditions": "Crystal; DTA"}},
  "note": "Numbers after ± are expanded uncertainties.",
  "data": [
    {"smiles": "NS(=O)(=O)c1ccccc1", "note": "[benzenesulfonamide]", "values": [
      {"measurement": "Molar enthalpy of transition or fusion", "setting": "[1]", "value": "5.67 ± 0.131", "unit": "kcal/mol"},
      {"measurement": "molar heat capacity at constant pressure", "setting": "[2]", "value": "172.91 ± 9.4", "unit": "J/K/mol"},
      {"measurement": "Normal melting temperature", "setting": "[3]", "value": "152.32 ± 0.39", "unit": "°C"}
    ]},
    {"smiles": "Nc1ccc(S(N)(=O)=O)cc1", "note": "[4-aminobenzenesulfonamide]", "values": [
      {"measurement": "Molar enthalpy of transition or fusion", "setting": "[1]", "value": "5.33 ± 0.122", "unit": "kcal/mol"},
      {"measurement": "molar heat capacity at constant pressure", "setting": "[2]", "value": "199.76 ± 10", "unit": "J/K/mol"},
      {"measurement": "Normal melting temperature", "setting": "[3]", "value": "164.53 ± 0.39", "unit": "°C"}
    ]},
    {"smiles": "Cc1ccc(S(N)(=O)=O)cc1", "note": "[p-toluenesulfonamide]", "values": [
      {"measurement": "Molar enthalpy of transition or fusion", "setting": "[1]", "value": "5.72 ± 0.174", "unit": "kcal/mol"},
      {"measurement": "molar heat capacity at constant pressure", "setting": "[2]", "value": "205.46 ± 14", "unit": "J/K/mol"},
      {"measurement": "Normal melting temperature", "setting": "[3]", "value": "137.27 ± 0.39", "unit": "°C"}
    ]},
    {"smiles": "Nc1ccccc1S(N)(=O)=O", "note": "[2-aminobenzenesulfonamide]", "values": [
      {"measurement": "Molar enthalpy of transition or fusion", "setting": "[1]", "value": "5.6 ± 0.129", "unit": "kcal/mol"},
      {"measurement": "molar heat capacity at constant pressure", "setting": "[2]", "value": "173.93 ± 21", "unit": "J/K/mol"},
      {"measurement": "Normal melting temperature", "setting": "[3]", "value": "153.46 ± 0.39", "unit": "°C"}
    ]},
    {"smiles": "Cc1ccccc1S(N)(=O)=O", "note": "[o-toluenesulfonamide]", "values": [
      {"measurement": "Molar enthalpy of transition or fusion", "setting": "[1]", "value": "6.75 ± 0.179", "unit": "kcal/mol"},
      {"measurement": "molar heat capacity at constant pressure", "setting": "[2]", "value": "193.48 ± 21", "unit": "J/K/mol"}
    ]}
  ]
}
